Structures are written as SMILES.

This experiment concerns the target T1, DVU0799 (Nitratidesulfovibrio vulgaris, UniProt Q72DY0).
T1 construct: gene DVU_0799; native protein purified from wild-type outer membranes (octyl glucoside), untagged; monomer about 50 kDa, homotrimer; reconstituted in proteoliposomes
T1 sequence (Q72DY0 24-466): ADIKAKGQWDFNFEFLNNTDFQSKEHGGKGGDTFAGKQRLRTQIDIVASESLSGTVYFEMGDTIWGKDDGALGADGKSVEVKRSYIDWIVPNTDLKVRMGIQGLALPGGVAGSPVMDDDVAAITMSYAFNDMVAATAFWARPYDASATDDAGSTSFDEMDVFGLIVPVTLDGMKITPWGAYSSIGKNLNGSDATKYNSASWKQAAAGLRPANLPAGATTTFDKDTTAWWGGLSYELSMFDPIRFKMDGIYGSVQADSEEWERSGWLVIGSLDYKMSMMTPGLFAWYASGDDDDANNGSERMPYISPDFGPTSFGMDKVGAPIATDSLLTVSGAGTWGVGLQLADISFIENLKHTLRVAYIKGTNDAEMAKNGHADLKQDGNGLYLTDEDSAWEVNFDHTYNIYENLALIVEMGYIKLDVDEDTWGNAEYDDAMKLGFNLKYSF
Nature of the experiment: liposome swelling assay (OD400), reconstituted proteoliposomes. Type of experiment: biochemical. Particulars: pore permeation (passive diffusion).

Turning to `O=C(O)[C@H](O)[C@@H](O)[C@H](O)[C@H](O)CO` [D-gluconate], under “relative to L-arabinose, 9 mM solute, 4 mM sodium NAD, 1 mM imidazole-NAD, pH 6.0”, the relative permeability result is “purified DVU0799 were also surveyed for their permeability to two sugar acids, D-gluconate”.

On to `OC1OC[C@H](O)[C@H](O)[C@H]1O` (stereo partly drawn) [L-arabinose], for which, for the setting “scaling reference of the assay, about 20 mM solute”, the relative permeability result is “the permeability profile begins with that for L-arabinose at the upper limit”.
